# Test results as given in US20250262263A1, “METHOD AND COMPOSITIONS FOR THE USE OF BOTANICAL EXTRACTS IN THE TREATMENT OF VIRAL INFECTIONS” (priority 2024, published 2025).
# Tested on: VACV
# Type: cell-based, vaccinia virus
# Details: 100 pfu VACV, 48 HPI
structure (smiles),measurement,value
C=C(C)[C@@H]1CC[C@]2(C)CC[C@]3(C)[C@H](CC[C@@H]4[C@@]5(C)CC[C@H](O)C(C)(C)[C@@H]5CC[C@]43C)[C@@H]12 [lupeol],antiviral activity (VACV plaques),did not show suitable antiviral activity
